Here are results for seven compounds from patent US20240277861A1, “ANTI-HEPATITIS B VIRUS AGENT TARGETING HOST FACTOR LIPG” (PUROTECH BIO, INC., priority 2021, published 2024).

Experiment [1] relates to HBV. Nature of the experiment: HBV attachment, uptake and replication in Huh7-LIPG cells. It is filed as cell-based. As to conditions: Huh7-LIPG cells infected with HBV, 3 days after treatment. The protocol:
(§1) HBV-DNA and cccDNA were quantified by qPCR as described below. Total DNA was extracted from cells using DNeasy Blood & Tissue Kit (Qiagen, Hilden, Germany). HBV-DNA was quantified by qPCR analysis as previously reported (Honda. M. et al., J. Infect. Dis., 213, 1096-1106, 2016). The extracted DNA (50 ng) was treated with 10 U of Plasmid safe DNase I (Epicentre, Madison. WI) at 37° C. for 60 minutes and then treated at 70° C. for 30 minutes for DNase inactivation, cccDNA was quantified by qPCR analysis as previously reported (Honda, M. et al., J. Infect. Dis. 213, 1096-1106, 2016). Quantitative RT-PCR was performed as described below. The GenElute™ Mammalian Total RNA Miniprep Kit (Sigma-Aldrich) was used for extraction of total RNA, and the High Capacity cDNA Reverse Transcription Kit (Applied Biosystems, Carlsbad, CA) was used for cDNA synthesis. The 7500 Real Time PCR System (Applied Biosystems) was used for RT-PCR. Primers 5′-[…]-3′ (SEQ ID NO: 31) and 5′-[…]-3′ (SEQ ID NO: 32) and a probe 5′-FAM-[…]-MGB-3′ (SEQ ID NO: 33) were used for pregenomic RNA. Primer pairs and probes for LIPG, NTCP. 18SrRNA, and ACTB were obtained from the TaqMan assay reagents library.
When the abundance of LIPG expression was compared among different liver cell lines. […] HepG2-NTCP-C4 cells with overexpression of FLAG-LIPG (HepG2-NTCP-C4-LIPG cells) were established (FIG. 2B), and the attachment and uptake of HBV into cells were assayed in the resulting cells. Heparin, which has been reported to inhibit HBV attachment (Schulze. A. et al., Hepatology 46: 1759-1768, 2007), and heparanase, an endo-β-D-glucuronidase that cleaves the heparan sulfate side chain in heparan sulfate proteoglycans (HSPGs) (Bame, KJ. Glycobiology,11: 91R-98R,2001), were used as control compounds. […] HBV attachment was detected by qPCR of HBV-DNA at 3 hours after HBV inoculation at 4° C. in the presence or absence of the compound (heparin or heparanase). […]

Experiment [2] has as its target T1, binding between preS1 and heparan sulfate enhanced by LIPG (Homo sapiens, UniProt Q9Y5X9).
T1 construct: FLAG
T1 sequence (Q9Y5X9 21-500): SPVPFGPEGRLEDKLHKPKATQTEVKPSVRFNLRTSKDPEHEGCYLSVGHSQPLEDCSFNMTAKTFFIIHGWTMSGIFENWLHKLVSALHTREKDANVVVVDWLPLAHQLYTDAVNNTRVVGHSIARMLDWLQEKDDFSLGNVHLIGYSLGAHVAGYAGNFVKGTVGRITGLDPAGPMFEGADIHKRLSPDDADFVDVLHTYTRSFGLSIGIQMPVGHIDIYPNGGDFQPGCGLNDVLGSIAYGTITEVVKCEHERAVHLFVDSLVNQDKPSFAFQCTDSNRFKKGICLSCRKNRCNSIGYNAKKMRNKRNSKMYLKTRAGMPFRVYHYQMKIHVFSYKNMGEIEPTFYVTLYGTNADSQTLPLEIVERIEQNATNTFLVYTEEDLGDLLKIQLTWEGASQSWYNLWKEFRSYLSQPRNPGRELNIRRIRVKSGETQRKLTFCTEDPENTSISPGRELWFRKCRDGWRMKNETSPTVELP
Nature of the experiment: Plate assay of binding between preS1 peptide and immobilized heparan sulfate with FLAG-LIPG. The following applies: 10 or 100 nmol of peptide per well, concentration-dependent. The method, then: FIG. 22-2 The effect of LIPG to promote HBV entry into cells and the effect of a LIPG-binding peptide and Netrin-1 to inhibit HBV entry into cells. E: A biotin-labeled form of heparan sulfate was added to a streptavidin-coated 96 well plate and left overnight at 4° C. to allow the heparan sulfate to bind to the plate. This plate was washed with TBS, and 10, 25, or 50 fmol of FLAG-LIPG was then added to each well to allow the reaction to proceed at room temperature for 2 hours. After the plate was washed, 10 or 100 nmol of LIPG-binding peptide LIPH4-NTNBS, LIPH4-23S, LIPH4-NTNBSA, or LIPH4-23SA was added to each well to allow the treatment to proceed at room temperature for 1 hour. Subsequently, the plate was washed, and 0.1 nmol of preS1-TMR was added to each well to allow the treatment to proceed at room temperature for another 1 hour. The plate was washed and then placed in a plate reader to measure the fluorescence of TMR.
Furthermore, PXB cells treated with Netrin-1 were further treated with FLAG-LIPG, and the uptake of the preS1 peptide was examined, to find that the enhancement of the uptake of the preS1 peptide by FLAG-LIPG was suppressed by Netrin-1 (FIG. 22D). In addition, a biotin-labeled heparan sulfate was immobilized on a streptavidin-coated plate and the preS1 peptide was added thereto to study the binding between the preS1 region of HBV and heparan sulfate present on the cell surface.

For experiment [3], the system named is HBV. Nature of the experiment: Anti-HBV activities of LIPG-binding peptides in PXB cells. The experiment is classed as cell-based. The following applies: for anti-HBV activity (effect to reduce HBV DNA and cccDNA copy numbers): HBV-infected PXB cells. The method, then: An infection source medium was prepared by adding the HBV-infected chimeric mouse serum (PhoenixBio), DMSO, and a PEG 8000 solution to the PXB cell culture medium (PhoenixBio) at final concentrations of 5 genome equivalents/cell, 2%, and 4%, respectively. Various synthesized peptides were diluted to different concentrations in this medium, and the resulting media were added individually to PXB cells (PhoenixBio). After the cells were left to stand in a 5% CO2 incubator at 37° C. for 20 to 28 hours, the medium was removed and the wells were washed once with PBS(−). DMSO and one of the various synthesized peptides were added to the PXB cell culture medium at a final concentration of 2% and different concentrations, respectively, and the resulting media were added individually to the PXB cells to perform medium exchange. This medium exchange was performed at 1, 5, and 9 days post infection and samples were collected at 14 days post infection.
(§2) SMI TEST™ M EX-R&D (Medical & Biological Laboratories) was used to extract DNA from the samples. The extracted DNA was used as a template for quantitative PCR of HBV-DNA. For cccDNA detection, the extracted DNA was treated with T5 exonuclease (New England Biolabs), and the resulting DNA was used as a template for quantitative PCR. The T5 exonuclease treatment was performed at 37° C. for 30 minutes, and the DNase was later inactivated by heating at 80° C. for 15 minutes. The following primer set was used for detection.
PXB cells, fresh human liver cells isolated from PXB mice (human hepatocyte chimeric mice), are human liver cells that maintain human liver functions at high levels and allow persistent infection with hepatitis B virus (HBV). Therefore, PXB cells were used to evaluate the anti-HBV activities of LIPG-binding peptides. LIPG-binding peptides were chemically synthesized because they were added extracellularly (Eurofins Genomics K.K.). Clones that had shown excellent results in the studies of Examples 10 and 1 (KIgk-LIPH4-23, KIgk-LIPH4-74, KIgk-LIPH4-15, KIgk-L1l 14-2. KIgk-LIPH14-14. KIgk-LIPH4-87) were selected for chemical synthesis of the peptides. […] Therefore, LIPH4-NTNA and LIPH4-NTNB, which share a common sequence with netrins and consist of 16 amino acids, were also chemically synthesized. The chemically synthesized peptides were dissolved in DMSO for use in HBV assays in PXB cells.
Next, the anti-HBV activity of full-length Netrin-1 was examined in PXB cells. A full-length human recombinant Netrin-1 protein consisting of 604 amino acid residues (molecular weight: 67.5 kDa, SEQ ID NO: 28) was purchased from R&D Systems. United States. A shRNA with the sequence […]ctcgagc[…] TTTTTTG (single underline: terminal sequences for cloning, lowercase letters: hairpin loop sequence) (SEQ ID NO: 64) was used to knock down the Netrin-1 gene.

The subject of experiment [4] is HBV. Nature of the experiment: Anti-HBV activities of LIPG-binding peptides in HepG2-NTCP-C4 cells (plasmid transfection). It is filed as cell-based. The protocol: as §2
Cells were infected with HBV derived from HepG2.2.15 at 20,000 genome equivalents/cell, and plasmids carrying different peptides were transfected individually into the cells 12 to 15 days post infection using Lipofectamine 3000. Samples were collected 3 to 5 days after transfection for evaluation of HBV-DNA, cccDNA, pgRNA, and the like.
For the clones positive in the pull-down experiment against full-length LIPG, the anti-HBV activities of the LIPG peptides were evaluated in HepG2-NTCP-C4 cells (FIG. 17). A secretion signal is added to a plasmid carrying each peptide. Therefore, the peptides are expected to be secreted from cells transfected with the plasmids and to bind to LIPG in the extracellular environment. […] Moreover, the copy number of cccDNA was reduced by almost all the clones.

Experiment [5] deals with HBV. Nature of the experiment: HBV attachment and uptake assay in HepG2-NTCP-C4-LIPG cells. It is filed as cell-based. As to conditions: pretreated 1 hour. The protocol:
as §1
When the abundance of LIPG expression was compared among different liver cell lines. […] HepG2-NTCP-C4 cells with overexpression of FLAG-LIPG (HepG2-NTCP-C4-LIPG cells) were established (FIG. 2B), and the attachment and uptake of HBV into cells were assayed in the resulting cells. Heparin, which has been reported to inhibit HBV attachment (Schulze. A. et al., Hepatology 46: 1759-1768, 2007), and heparanase, an endo-β-D-glucuronidase that cleaves the heparan sulfate side chain in heparan sulfate proteoglycans (HSPGs) (Bame, KJ. Glycobiology,11: 91R-98R,2001), were used as control compounds. Cells (HepG2-NTCP-C4-LIPG cells and HepG2-NTCP-C4 control cells) were pretreated with these compounds for 1 hour and then with HBV at 4° C. for 3 hours to allow HBV to attach the cells, washed to wash out HBV, and further incubated at 37° C. for 12 hours to detect uptake of HBV (FIG. 2C). In addition, the cells were further cultured in a conventional culture medium for 3 days after HBV inoculation to detect HBV DNA and cccDNA in the cells (FIG. 2C). HBV attachment was detected by qPCR of HBV-DNA at 3 hours after HBV inoculation at 4° C. in the presence or absence of the compound (heparin or heparanase). HBV attachment (FIG. 2D), uptake (FIG. 2E), and replication of HBV DNA and cccDNA (FIGS. 2F and 2G) were all increased in the HepG2-NTCP-C4-LIPG cells compared to the HepG2-NTCP-C4 control cells.
Next, the effect of a LIPG inhibitor (GSK-264220A) on HBV attachment and uptake was examined. […] At the same time, this inhibitor had no effect on HepG2-NTCP-C4 control cells.

For `CCN(c1nc(N)c(C(=O)N=C(N)N)nc1Cl)C(C)C` [5-(N-ethyl-N-isopropyl)amiloride], the “LIPG-mediated increase in HBV replication (cccDNA)” value with HBV [1] is recorded as “no effect”.

As for `CN(C)CCCN1c2ccccc2Sc2ccc(Cl)cc21` [chlorpromazine], the “LIPG-mediated increase in HBV replication (cccDNA)” value in the experiment with HBV [1] is on record as “no effect”.

LNARDNTR (LIPH4-23SA): the “LIPG-mediated enhancement of binding between preS1 and heparan sulfate” value in experiment [2] is “inhibited”. For the same compound, the “anti-HBV activity (effect to reduce HBV DNA and cccDNA copy numbers)” value with HBV [3] is reported as “as strongly as the original polypeptides”.

Regarding LNCRDNTRPVMSAMTC (LIPH4-23), the “anti-HBV activity (effect to reduce HBV DNA and cccDNA copy numbers)” value with HBV [3] was “high anti-HBV activity”. The anti-HBV activity entry in the experiment with HBV [4] is listed as “remarkable anti-HBV activity”.

For NARHNTAG (LIPH4-NTNBsA), in experiment [2], the “LIPG-mediated enhancement of binding between preS1 and heparan sulfate” value is reported as “inhibited”. Further, the “anti-HBV activity (effect to reduce HBV DNA and cccDNA copy numbers)” value in the experiment with HBV [3] is listed as “as strongly as the original polypeptides”. Besides, in the experiment on HBV [3] (PXB cells, each concentration), the “activity in terms of copy number of HBV-DNA relative to LIPH4-NTNBs” value is on record as “equal to or greater than that of LIPH4-NTNBs” and the “activity in terms of copy number of cccDNA relative to LIPH4-NTNBs” value is given as “equal to or greater than that of LIPH4-NTNBs”.

Take heparanase: in the experiment with HBV [5], the “increase in HBV attachment, uptake, and replication of HBV DNA and cccDNA in LIPG-overexpressing cells” value is listed as “reduced this increase to the same level as the control”.

Take heparin: the “increase in HBV attachment, uptake, and replication of HBV DNA and cccDNA in LIPG-overexpressing cells” value in the experiment on HBV [5] is recorded as “reduced this increase to the same level as the control”.
